Read-outs that look alike come from different tables or passages of the source.
Experiments:
[1] = tested on: H3 receptor; details: cited from earlier work
[2] = intraventricular, saline and pentobarbital-treated rats; cited from earlier work
[3] = intraventricular, rabbits; cited from earlier work
[4] = tested on: H3 histamine receptor; details: tested as a racemic mixture; cited from earlier work
[5] = tested on: H3 receptor; details: rats; cited from earlier work
[6] = tested on: H3 receptor; details: cat (Lin et al., 1990); cited from earlier work
[7] = tested on: synthesis and release of histamine; details: in vivo studies; cited from earlier work
[8] = target: T1, Histamine H3 receptor (Rattus norvegicus, UniProt Q9QYN8); assay: In Vitro Histamine H3 Receptor Binding Analysis ([3H]-Nα-methylhistamine, rat cortical membranes); details: pH 7.4, 25° C., 40 minutes
T1 construct: Rat cortices were mechanically homogenized; from tissue; host or cells: rat cerebral cortex membranes
T1 sequence (Q9QYN8 whole entry): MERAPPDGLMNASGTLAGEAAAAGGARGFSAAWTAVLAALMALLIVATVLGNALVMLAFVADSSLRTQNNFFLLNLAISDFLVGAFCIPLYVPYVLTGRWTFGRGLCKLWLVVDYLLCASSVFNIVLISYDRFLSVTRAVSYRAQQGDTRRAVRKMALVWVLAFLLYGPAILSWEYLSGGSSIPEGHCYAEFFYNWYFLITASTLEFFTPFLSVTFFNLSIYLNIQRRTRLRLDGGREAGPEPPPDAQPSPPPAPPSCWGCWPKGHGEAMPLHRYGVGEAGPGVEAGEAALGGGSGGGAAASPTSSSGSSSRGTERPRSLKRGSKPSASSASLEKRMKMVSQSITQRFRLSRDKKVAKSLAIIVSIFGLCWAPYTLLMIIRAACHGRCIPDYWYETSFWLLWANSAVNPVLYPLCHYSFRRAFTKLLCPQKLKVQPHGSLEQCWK
Protocol: Histamine H3 receptor affinity was determined in rat cortical membranes using the H3 selective agonist ligand, [^3 H]-N^α -methylhistamine (78.9 Ci/mmole, DuPont NEN Research Products, Boston, Mass.) according to the method of West et al., (1990) Mol. Pharmacol. 38: 610-613 with modifications. Briefly, animals were sacrificed by decapitation and the cerebral cortex was rapidly removed. Rat cortices were mechanically homogenized with an Omni 1000 motor driven homogenizer in 10 volumes (wt/vol) of Krebs-Ringers Hepes buffer (pH 7.4) containing the following protease inhibitors; EDTA (10 mM), PMSF (0.1 mM), chymostatin (0.2 mg/50 mL) and leupeptin (0.2 mg/50 mL). The homogenate was centrifuged in a Sorvall at ~40,000× g for 30 min. […] Protein concentrations were determined by Coomassie Plus Protein Assay (Pierce, Rockford, Ill.).
The binding assay was carried out in polypropylene tubes in a total volume of 0.4 ml of 50 mM Na^+ Phosphate buffer (pH 7.4), containing 150-200 μg of tissue protein, 0.8-1.2 nM [^3 H]-N^α -methylhistamine and 0.3 to 10,000 nM GT-2016. […] Filters were transferred to polyethylene minivials and counted in 3.5 ml of scintillation fluid (Ecolume, ICN Biomedicals, Inc.). […] Saturation and competition experiments were analyzed with the ReceptorFit saturation and competition curve fittingprograms (Lundon Software, Inc., Cleveland, OH).

NCCc1c[nH]cn1 [histamine]
stimulation of the H3 autoreceptor [1]: capable of stimulating this autoreceptor | spontaneous locomotor activity, grooming and exploratory behavior [2]: increased | arousal EEG pattern [3]: induces the appearances of an arousal EEG pattern

NC1CC1c1c[nH]cn1 (racemic) [2-(4-imidazoyl)-cyclopropylamine]
H3 histamine receptor agonist activity [4]: moderate

S=C(NC1CCCCC1)N1CCC(c2cnc[nH]2)CC1 [thioperamide]
slow wave and REM sleep [5]: decrease slow wave and REM sleep | wakefulness [5]: increase wakefulness | wakefulness [6]: enhanced wakefulness in a dose-dependent fashion | synthesis and release of histamine [7]: can increase

NC1CCC(c2c[nH]cn2)CC1 (stereo not drawn)
Ki [8]: 20 nM

Source: patent US6072057A, “1H-4(5)-cyclo-substituted imidazole derivatives as histamine H3 receptor agents” (Gliatech Inc., priority 1998, dated 2000)
